Measured values: paper PMC6274517, “Design, Synthesis and Structure-Activity Relationships of Novel Chalcone-1,2,3-triazole-azole Derivates as Antiproliferative Agents” (Molecules, 2016)
≈ marks a conversion by molar mass, not a printed value. Where two headings read alike, the source gives them in different places.

How the values were obtained:
MGC-803 = test: MTT antiproliferative assay, MGC-803; assay type: cell-based, human; details: mean ± SD of three experiments
Protocol: (§1) In totally, a series of novel chalcone-1,2,3-triazole-azole derivatives were successfully synthesized, and their structures characterized by ^1H-NMR, ^13C-NMR, HRMS. Their in vitro antiproliferative activities were then tested, using a MTT assay, against three selected cancer cell lines (SK-N-SH, EC-109 and MGC-803) and compared with the well-known anticancer drug 5-fluorouracil.
(§2) All synthesized compounds were evaluated for their anticancer activity against three cancer cell lines, MGC-803 (human gastric cancer cell line), SK-N-SH (human neuroendocrine cancer cell line), and […] (human esophageal cancer cell line) using MTT assay method and compared with the well-known anticancer drug 5-fluorouracil.

SK-N-SH = test: MTT antiproliferative assay, SK-N-SH; assay type: cell-based, human; details: 72 h exposure, mean ± SD of three experiments
Protocol: as §1, §2

EC-109 = test: MTT antiproliferative assay, EC-109; assay type: cell-based, human; details: mean ± SD of three experiments
Protocol: as §1, §2

MCF-7 = details: cited from earlier work
SMMC-7721 = test system: SMMC-7721; design: method as in PMID 21345546; details: cited from earlier work
GES-1 = test: Cytotoxicity against normal GES-1 cells; assay type: cell-based, human; details: for IC50: normal human gastric epithelial cell line, 72 h exposure, mean ± SD of three experiments; for selectivity between cancer and normal cells: MGC-803 versus GES-1
From the text: Compounds I-14 and I-21 were further examined for possible cytotoxicity against GES-1 (normal human gastric epithelial cell line).

[1] = test system: SK-N-SH, EC-109 and MGC-803; test: MTT antiproliferative assay, three cancer cell lines together; assay type: cell-based, human; details: range across EC-109, SK-N-SH, read-out: IC50 values, range over the three cancer cell lines
Protocol: as §1, §2

K562 cells = test system: K562 cells; design: method as in PMID 19837593; details: cited from earlier work
[2] = test system: Bcl-2 and Bax in SK-N-SH cells; test: Western blot of Bcl-2 and Bax; assay type: cell-based, human; details: 48 h treatment
Protocol: Antiproliferative agents that induce apoptosis in cancer cells are always preferred in antitumor drug discovery. Bcl-2 associated proteins have both anti-apoptotic and pro-apoptotic effects in vrious cancer cell lines. For the high potent cytotoxic activity against SK-N-SH cell line, compound I-21 was evaluated the level of Bcl-2 (apoptotic inhibitor) and Bax (apoptotic inducer). […] Further mechanism investigations are under way and will be reported in due course.
Figure 6 Expression of Bcl-2 and Bax in SK-N-SH cells after treatment by compound I-21 for 48 h.

SK-N-SH cells = test: Apoptosis analysis with Hoechst-33258 staining; assay type: cell-based, human; details: SK-N-SH cells, 5, 10 and 20 μM; 24 h / 48 h (legend of Figure 5)
Protocol: To explore cytotoxicity of I-21 in SK-N-SH cells, cell apoptosis was investigated with Hoechst 33258 staining.
Figure 5 Apoptosis analysis with Hoechst-33258 staining after a 48 h treatment of I-21 in SK-N-SH cell line at 5 μM, 10 μM and 20 μM.

[3] = Homo sapiens, MGC-803, 72 h exposure
[4] = Homo sapiens, ECa-109, 72 h exposure

Row | Molecule | IC50 (MGC-803; [3]) [µM] | IC50 (SK-N-SH; Homo sapiens, SK-N-SH) [µM] | melting point [°C] | IC50 (EC-109; [4]) [µM] | also measured
1 | Cn1nnnc1SCc1cn(CCCOc2ccc(C(=O)/C=C/c3ccc(Cl)cc3)cc2)nn1 [Compound I-24, (E)-3-(4-Chlorophenyl)-1-(4-(3-(4-(((1-methyl-1H-tetrazol-5-yl)thio)methyl)-1H-1,2,3-triazol-1-yl)propoxy)phenyl)prop-2-en-1-one] | 50.1 ± 0.97 | 28.4 ± 1.59 | 149 to 150 | 24.9 ± 1.09 | 
2 | O=C(/C=C/c1cccnc1)c1ccc(OCCCn2cc(CSc3nncs3)nn2)cc1 [Compound I-22, (E)-1-(4-(3-(4-(((1,3,4-Thiadiazol-2-yl)thio)methyl)-1H-1,2,3-triazol-1-yl)propoxy)phenyl)-3-(pyridin-3-yl)prop-2-en-1-one] | 4.45 ± 0.82 | 12.4 ± 0.44 | 146 to 149 | 14.6 ± 1.21 | 
3 | CN(C)CCN1C(=O)c2cccc3cc(-n4cc(-c5ccccc5)nn4)cc(c23)C1=O [Compound 3] |  |  |  |  | IC50 (MCF-7): 0.348 µM; IC50 (SMMC-7721): 0.258 µM
4 | COc1cc(/C=C/C(=O)c2ccc(OCCCn3cc(CSc4nnnn4C)nn3)cc2)cc(OC)c1OC [Compound I-25, (E)-1-(4-(3-(4-(((1-Methyl-1H-tetrazol-5-yl)thio)methyl)-1H-1,2,3-triazol-1-yl)propoxy)phenyl)-3-(3,4,5-trimethoxyphenyl)prop-2-en-1-one] | 5.66 ± 0.55 | 6.98 ± 0.4 | 105 to 107 | 5.28 ± 0.56 | 
5 | Cn1nnnc1SCc1cn(CCCOc2ccc(C(=O)/C=C/c3cccs3)cc2)nn1 [Compound I-27, (E)-1-(4-(3-(4-(((1-Methyl-1H-tetrazol-5-yl)thio)methyl)-1H-1,2,3-triazol-1-yl)propoxy)phenyl)-3-(thiophen-2-yl)prop-2-en-1-one] | 38.1 ± 0.91 | 29.3 ± 0.85 | 129 to 130 | > 100 | 
6 | O=C(/C=C/c1ccc(Cl)cc1)c1ccc(OCCCn2cc(CSC3=NCCS3)nn2)cc1 [Compound I-13, (E)-3-(4-Chlorophenyl)-1-(4-(3-(4-(((4,5-dihydrothiazol-2-yl)thio)methyl)-1H-1,2,3-triazol-1-yl)propoxy)phenyl)prop-2-en-1-one] | 37.2 ± 0.85 | 19.3 ± 0.47 | 151 to 153 | > 100 | 
7 | O=C(/C=C/c1ccc(Cl)cc1)c1ccc(OCCCn2cc(CSc3nncs3)nn2)cc1 [Compound I-20, (E)-1-(4-(3-(4-(((1,3,4-Thiadiazol-2-yl)thio)methyl)-1H-1,2,3-triazol-1-yl)propoxy)phenyl)-3-(4-chlorophenyl)prop-2-en-1-one] | 46.3 ± 1.64 | 3.75 ± 1.21 | 143 to 145 | 5.81 ± 0.21 | 
8 | Cn1nnnc1SCc1cn(CCCOc2ccc(C(=O)/C=C/c3cccnc3)cc2)nn1 [Compound I-26, (E)-1-(4-(3-(4-(((1-Methyl-1H-tetrazol-5-yl)thio)methyl)-1H-1,2,3-triazol-1-yl)propoxy)phenyl)-3-(pyridin-3-yl)prop-2-en-1-one] | 5.56 ± 0.45 | 4.49 ± 0.45 | 151 to 153 | 11.8 ± 0.74 | 
9 | O=C(/C=C/c1cccs1)c1ccc(OCCCn2cc(CSc3nc4ccccc4s3)nn2)cc1 [Compound I-19, (E)-1-(4-(3-(4-((Benzo[d]thiazol-2-ylthio)methyl)-1H-1,2,3-triazol-1-yl)propoxy)phenyl)-3-(thiophen-2-yl)prop-2-en-1-one] | 24.4 ± 0.71 | 37.8 ± 0.91 |  | 38.8 ± 1.05 | 
10 | O=C(/C=C/c1ccc(Cl)cc1)c1ccc(OCCCn2cc(CSc3nc4ccccc4s3)nn2)cc1 [Compound I-17] | 38.2 ± 0.58 | > 100 | 172 to 174 | 9.54 ± 0.05 | 
11 | O=C(/C=C/c1ccccc1)c1ccccc1 [Compound 1] |  |  |  |  | IC50 MCF-7 (MCF-7): 6.88 µg/mL (≈ 33 µM)
12 | O=C(/C=C/c1cccs1)c1ccc(OCCCn2cc(CSC3=NCCS3)nn2)cc1 [Compound I-16, (E)-1-(4-(3-(4-(((4,5-Dihydrothiazol-2-yl)thio)methyl)-1H-1,2,3-triazol-1-yl)propoxy)phenyl)-3-(thiophen-2-yl)prop-2-en-1-one] | 8.69 ± 0.42 | 11.2 ± 0.26 | 104 to 106 | 19.3 ± 0.79 | 
13 | O=C(/C=C/c1cccs1)c1ccc(OCCCn2cc(CSc3nncs3)nn2)cc1 [Compound I-23, (E)-1-(4-(3-(4-(((1,3,4-Thiadiazol-2-yl)thio)methyl)-1H-1,2,3-triazol-1-yl)propoxy)phenyl)-3-(thiophen-2-yl)prop-2-en-1-one] | 15.1 ± 0.85 | 21 ± 1.81 |  | 57.2 ± 1.63 | 
14 | O=C(/C=C/c1cccnc1)c1ccc(OCCCn2cc(CSc3nc4ccccc4s3)nn2)cc1 [Compound I-18, (E)-1-(4-(3-(4-((Benzo[d]thiazol-2-ylthio)methyl)-1H-1,2,3-triazol-1-yl)propoxy)phenyl)-3-(pyridin-3-yl)prop-2-en-1-one] | 6.24 ± 0.05 | 14.8 ± 0.72 | 144 to 146 | 24.6 ± 3.8 | 
15 | COc1cc(/C=C/C(=O)c2ccc(OCCCn3cc(CSC4=NCCS4)nn3)cc2)cc(OC)c1OC [Compound I-14, (E)-1-(4-(3-(4-(((4,5-Dihydrothiazol-2-yl)thio)methyl)-1H-1,2,3-triazol-1-yl)propoxy)phenyl)-3-(3,4,5-trimethoxyphenyl)prop-2-en-1-one] | 8.52 ± 0.56 | 5.87 ± 1.05 | 169 to 171 | 3.57 ± 0.22 | IC50 (GES-1; GES1): > 64 µM; selectivity between cancer and normal cells (GES-1): good selectivity; IC50 ([1]; Homo sapiens): 3.57 to 8.52 µM
16 | O=C(/C=C/c1cccnc1)c1ccc(OCCCn2cc(CSC3=NCCS3)nn2)cc1 [Compound I-15, (E)-1-(4-(3-(4-(((4,5-Dihydrothiazol-2-yl)thio)methyl)-1H-1,2,3-triazol-1-yl)propoxy)phenyl)-3-(pyridin-3-yl)prop-2-en-1-one] | 63.8 ± 1.17 | 47.3 ± 1.57 | 149 to 151 | 42.36 ± 0.18 | 
17 | O=c1[nH]cc(F)c(=O)[nH]1 [Compound 5-FU, 5-fluorouracil, reference compound] | 7.14 ± 0.28 | 9.85 ± 0.76 |  | 10.3 ± 0.32 | 
18 | COc1ccc(C(=O)/C=C/c2cc(OC)c(OC)c(OC)c2)cc1OC [Compound 2] |  |  |  |  | IC50 (K562 cells): 1.1 µM
19 | O=C(NCc1cn(Cc2cccc(Oc3ccccc3)c2)nn1)c1ccccn1 [Compound 4] |  |  |  |  | IC50 (MCF-7): 0.046 µM
20 | (E)-1-(4-(3-(4-(((1,3,4-Thiadiazol-2-yl)thio)methyl)-1H-1,2,3-triazol-1-yl)propoxy)phenyl)-3-(3,4,5-trimethoxyphenyl)prop-2-en-1-one [Compound I-21] |  |  |  |  | IC50 (MGC-803; 72 h exposure): 4.26 ± 0.32 µM; selectivity between cancer and normal cells (GES-1): good selectivity; IC50 (GES-1): 43.7 ± 1.35 µM; level of Bax [2]: increased the level of Bax; level of Bcl-2 [2]: reduced the level of Bcl-2; IC50 [1]: 1.52 to 10.4 µM; IC50 (SK-N-SH): 1.52 ± 0.3 µM; IC50 (EC-109; 72 h exposure): 10.4 ± 0.24 µM; apoptotic morphological changes (Hoechst 33258 staining) (SK-N-SH cells): characteristic apoptotic morphological changes
